From PubChem BioAssay AID874 (The Scripps Research Institute Molecular Screening Center, 2007) come the findings set out here.

Active and inactive are the calls of the source. No rule for the calls is given here.

In this test the test system is CRE-BLA reporter cells, beta-lactamase FRET, counterscreen. The experiment in a line: activators of CRE-BLA reporter, SAR follow-up, counter-screen for S1P2 agonist project, cell-based, purchased analogues, beta-lactamase FRET (AID 874).
Broadly, the EC50 is the concentration at which the effect is half-maximal. On to `CNC(=O)c1ccc(CN(C)CC(=O)c2cc(C)n(Cc3ccccc3)c2C)cc1`, for which the EC50 is > 44 µM (inactive). With `Cc1cc(C(=O)COC(=O)c2ccco2)c(C)n1Cc1ccccc1` the figure was > 44 µM (inactive); with `Cc1cc(C(=O)COC(=O)C2CSC3(C)CCC(=O)N23)c(C)n1Cc1ccccc1` (centres undefined), > 44 µM (inactive). On to `Cc1cc(C(=O)COC(=O)CCS(=O)(=O)c2ccccc2)c(C)n1Cc1ccccc1`, for which the EC50 was > 44 µM (inactive).

Take `Cc1cc(C(=O)CN2C(=O)C(=O)N(Cc3ccccc3)C2=O)c(C)n1Cc1ccccc1`: the EC50 was > 44 µM (inactive). With `Cc1cc(C(=O)COC(=O)C(O)c2ccccc2)c(C)n1Cc1ccccc1` (centres undefined) the figure was > 44 µM (inactive). For `Cc1cc(C(=O)CSc2ncccn2)c(C)n1Cc1ccccc1` the value was > 44 µM (inactive). In the case of `Cc1cc(C(=O)CN2C(=O)NC(Cc3ccccc3)C2=O)c(C)n1Cc1ccccc1` (centres undefined), the EC50 was > 44 µM (inactive). As to `Cc1ccc(C(=O)OCC(=O)c2cc(C)n(Cc3ccccc3)c2C)o1`, the EC50 was > 44 µM (inactive). For `Cc1cc(C(=O)CSc2nnnn2C2CC2)c(C)n1Cc1ccccc1`, the EC50 is > 44 µM (inactive).

For `Cc1cc(C(=O)COC(=O)C2CCC2)c(C)n1Cc1ccccc1`, the EC50 is > 44 µM (inactive).

For `Cc1cc(C(=O)CN2C(=O)CCC2=O)c(C)n1Cc1ccccc1`, the EC50 was > 44 µM (inactive).

As to `CC(=O)c1ccc(OCC(=O)c2cc(C)n(Cc3ccccc3)c2C)cc1`, the EC50 is > 44 µM (inactive).

`CC(=O)c1cccc(OCC(=O)c2cc(C)n(Cc3ccccc3)c2C)c1`: the EC50 was > 44 µM (inactive).

On to `Cc1cc(C(=O)CN2C(=O)NC3(CCc4ccccc43)C2=O)c(C)n1Cc1ccccc1` (centres undefined), for which the EC50 is > 44 µM (inactive). For `Cc1cc(C(=O)O)c(C)n1Cc1ccccc1`, the EC50 was > 44 µM (inactive).

As to `Cc1cc(C(=O)CSc2nnc(C3CC3)n2C)c(C)n1Cc1ccccc1`, the EC50 was > 44 µM (inactive). As for `Cc1cc(C(=O)CN2C(=O)C(=O)N(C)C2=O)c(C)n1Cc1ccccc1`, the EC50 was > 44 µM (inactive). `Cc1cc(C(=O)CSc2ncn[nH]2)c(C)n1Cc1ccccc1`: the EC50 was > 44 µM (inactive). For the compound `Cc1cc(C(=O)CN(C)CC(=O)NC2CC2)c(C)n1Cc1ccccc1`, the EC50 is > 44 µM (inactive). Regarding `Cc1cc(C(=O)CN(C)Cc2ccco2)c(C)n1Cc1ccccc1`, the EC50 was > 44 µM (inactive).

Regarding `CCNC(=O)CN(CC)CC(=O)c1cc(C)n(Cc2ccccc2)c1C`, the EC50 is > 44 µM (inactive).

As to `Cc1noc(C)c1C(=O)OCC(=O)c1cc(C)n(Cc2ccccc2)c1C`, the EC50 is > 44 µM (inactive). Turning to `Cc1cc(C(=O)COc2ccc(C(N)=O)cc2)c(C)n1Cc1ccccc1`, the EC50 was > 44 µM (inactive). As for `Cc1cc(C(=O)CN(C)CC(=O)NC(C)C)c(C)n1Cc1ccccc1`, the EC50 was > 44 µM (inactive).

As to `Cc1cc(C(=O)COC(=O)CN2C(=O)C3CCCCC3C2=O)c(C)n1Cc1ccccc1` (centres undefined), the EC50 is > 44 µM (inactive). Take `Cc1cc(C(=O)CN2C(=O)C(=O)N(C3CCCC3)C2=O)c(C)n1Cc1ccccc1`: the EC50 was > 44 µM (inactive). As for `Cc1cc(C(=O)CN(C)CC(=O)N2CCCC2)c(C)n1Cc1ccccc1`, the EC50 is > 44 µM (inactive). Turning to `Cc1cc(C(=O)CN(C)CC(=O)N2CCOCC2)c(C)n1Cc1ccccc1`, the EC50 is > 44 µM (inactive).

Regarding `Cc1cc(C)nc(SCC(=O)OCC(=O)c2cc(C)n(Cc3ccccc3)c2C)n1`, the EC50 is > 44 µM (inactive).

Take `COCCNC(=O)CN(C)CC(=O)c1cc(C)n(Cc2ccccc2)c1C`: the EC50 is > 44 µM (inactive). Regarding `CC(=O)Nc1ccc(SCC(=O)c2cc(C)n(Cc3ccccc3)c2C)cc1`, the EC50 was > 44 µM (inactive). Turning to `Cc1cc(C(=O)COC(=O)Cn2c(=O)oc3ccccc32)c(C)n1Cc1ccccc1`, the EC50 was > 44 µM (inactive). With `Cc1cc(C(=O)CN2CCN(C(=O)c3ccco3)CC2)c(C)n1Cc1ccccc1` the figure was > 44 µM (inactive). On to `Cc1cc(C(=O)Cn2cc(C(F)(F)F)ccc2=O)c(C)n1Cc1ccccc1`, for which the EC50 was > 44 µM (inactive). As for `Cc1sc2ncn(CC(=O)c3cc(C)n(Cc4ccccc4)c3C)c(=O)c2c1C`, the EC50 is > 44 µM (inactive).

On to `Cc1nc(C)c(C(=O)OCC(=O)c2cc(C)n(Cc3ccccc3)c2C)s1`, for which the EC50 is > 44 µM (inactive). As for `CCC1(CC)NC(=O)N(CC(=O)OCC(=O)c2cc(C)n(Cc3ccccc3)c2C)C1=O`, the EC50 is > 44 µM (inactive). For `COc1ccc(NC(=O)CN(C)CC(=O)c2cc(C)n(Cc3ccccc3)c2C)cc1`, the EC50 was > 44 µM (inactive). Regarding `Cc1cc(C(=O)CN(C)CC(=O)N(C)C)c(C)n1Cc1ccccc1`, the EC50 is > 44 µM (inactive).

As for `Cc1cc(C(=O)COC(=O)Cn2cnc3ccccc3c2=O)c(C)n1Cc1ccccc1`, the EC50 was > 44 µM (inactive). With `CCOC(=O)c1cc(C)n(Cc2ccccc2)c1C`, the EC50 is > 44 µM (inactive). For the compound `Cc1nn(CC(=O)c2cc(C)n(Cc3ccccc3)c2C)c(C)c1[N+](=O)[O-]`, the EC50 is > 44 µM (inactive).

In the case of `Cc1cc(C(=O)CN2C(=O)C(=O)N(Cc3ccco3)C2=O)c(C)n1Cc1ccccc1`, the EC50 was > 44 µM (inactive). Take `Cc1cc(C(=O)CSc2nnnn2C(C)(C)C)c(C)n1Cc1ccccc1`: the EC50 is > 44 µM (inactive). `Cc1cc(C(=O)CN(C)CC(=O)NC(C)(C)C)c(C)n1Cc1ccccc1`: the EC50 is > 44 µM (inactive).

For `Cc1cc(C(=O)COC(=O)CN2C(=O)NC(C)(C)C2=O)c(C)n1Cc1ccccc1`, the EC50 was > 44 µM (inactive). In the case of `Cc1cc(C(=O)CN2C(=O)C(=O)N(Cc3ccccc3)C2=O)c(C)n1Cc1ccco1`, the EC50 is > 44 µM (inactive). As to `COc1ccc(C(N)=O)c(OCC(=O)c2cc(C)n(Cc3ccccc3)c2C)c1`, the EC50 was > 44 µM (inactive). On to `Cc1cc(C(=O)CSc2nnnn2C)c(C)n1Cc1ccccc1`, for which the EC50 was > 44 µM (inactive). Regarding `Cc1cc(C(=O)CN2C(=O)CCC2=O)c(C)n1Cc1ccc2c(c1)OCO2`, the EC50 is > 44 µM (inactive). Take `Cc1cc(C(=O)Cn2cnc3c2c(=O)n(C)c(=O)n3C)c(C)n1Cc1ccccc1`: the EC50 is > 44 µM (inactive). Turning to `COc1cccc(C2(C)NC(=O)N(CC(=O)c3cc(C)n(Cc4ccccc4)c3C)C2=O)c1` (centres undefined), the EC50 was > 44 µM (inactive). As to `Cc1cc(C(=O)CN2C(=O)C(=O)N(Cc3ccccc3)C2=O)c(C)n1Cc1ccc(F)cc1`, the EC50 is > 44 µM (inactive). Take `Cc1cc(C(=O)Cn2cnc3c(oc4ccccc43)c2=O)c(C)n1Cc1ccccc1`: the EC50 was > 44 µM (inactive).

As for `CC(=O)Nc1ccc(OCC(=O)c2cc(C)n(Cc3ccccc3)c2C)cc1`, the EC50 was > 44 µM (inactive). As for `CCCNC(=O)CN(C)CC(=O)c1cc(C)n(Cc2ccccc2)c1C`, the EC50 is > 44 µM (inactive).

Turning to `Cc1cc(C(=O)CN2C(=O)NC3(CCOc4ccccc43)C2=O)c(C)n1Cc1ccccc1` (centres undefined), the EC50 was > 44 µM (inactive). Consider `Cc1cc(C(=O)CN2C(=O)NC(Cc3ccccc3)C2=O)c(C)n1Cc1cccs1` (centres undefined), for which the EC50 is > 44 µM (inactive).
